Measured values reported in patent US10227344B2, “CK2 inhibitors, compositions and methods thereof” (Polaris Pharmaceuticals, Inc., priority 2016, dated 2019).
pKi: −log10 of the molar value.

Columns and labels:
purified CK2α enzyme = purified CK2α enzyme (Homo sapiens, UniProt P68400); assay: CK2 Protein Kinase Inhibition Assay (coupled PK/LDH assay); type: biochemical; settings: CK2 enzyme 25 nM, 100 μM ATP, 37° C., Morrison equation
Method in brief: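 Purified CK2α at 25 nM final, 1.5 mM peptide substrate, 100 μM ATP, pH 8.25 Tris buffer; compounds pre-incubated 10 min at 37° C. ADP coupled via PK/LDH to NADH loss at 340 nm over 30 min, 37° C. Ki from rate versus concentration by Morrison equation, triplicate points.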

Chain of purified CK2α enzyme (P68400 whole entry): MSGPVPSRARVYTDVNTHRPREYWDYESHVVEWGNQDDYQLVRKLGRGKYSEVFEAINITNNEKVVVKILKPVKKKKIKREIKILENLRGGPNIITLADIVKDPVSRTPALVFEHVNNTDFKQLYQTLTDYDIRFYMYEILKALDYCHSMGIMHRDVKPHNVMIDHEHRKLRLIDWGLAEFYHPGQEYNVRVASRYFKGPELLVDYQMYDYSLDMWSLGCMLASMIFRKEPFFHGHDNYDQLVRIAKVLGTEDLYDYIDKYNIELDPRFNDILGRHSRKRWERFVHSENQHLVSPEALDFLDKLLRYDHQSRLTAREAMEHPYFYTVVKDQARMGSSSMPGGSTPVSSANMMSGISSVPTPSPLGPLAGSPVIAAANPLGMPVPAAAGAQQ

| pKi (purified CK2α enzyme) | melting point [°C] | Compound |
| --- | --- | --- |
| > 8.60 | 233 to 235 | C[S+]([O-])Cc1cc(Nc2cc(NC3CC3)n3ncc(C#N)c3n2)ccc1OC(F)F (racemic) [Example 19, (±)-7-(Cyclopropylamino)-5-((4-(difluoromethoxy)-3-((methylsulfinyl)methyl)phenyl)amino)pyrazolo[1,5-a]pyrimidine-3-carbonitrile] |
| 8.00 to 8.60 | 238 to 240 | CS(=O)(=O)Cc1cc(Nc2cc(NC3CC3)n3ncc(C#N)c3n2)ccc1OCCN.Cl [Example 26, 5-((4-(2-aminoethoxy)-3-((methylsulfonyl)methyl)phenyl)amino)-7-(cyclopropylamino)pyrazolo[1,5-a]pyrimidine-3-carbonitrile hydrochloric acid salt] |
| > 8.60 | 233 to 235 | COc1ccc(Nc2cc(NC3CC3)n3ncc(C#N)c3n2)cc1CS(C)(=O)=O [Example 18, 7-(Cyclopropylamino)-5-((4-methoxy-3-((methylsulfonyl)methyl)phenyl)amino)pyrazolo[1,5-a]pyrimidine-3-carbonitrile] |
| > 8.60 | 229 to 233 | CN(C)c1ccc(Nc2cc(NC3CC3)n3ncc(C#N)c3n2)cc1C[S+](C)[O-] (racemic) [Example 33, (±)-7-(Cyclopropylamino)-5-((4-(dimethylamino)-3-((methylsulfinyl)methyl)phenyl)amino)pyrazolo[1,5-a]pyrimidine-3-carbonitrile] |
| > 8.60 | 206 to 208 | C[S+]([O-])Cc1cc(Nc2cc(NC3CC3)n3ncc(C#N)c3n2)ccc1OCCN (racemic) [Example 31, (±)-5-((4-(2-aminoethoxy)-3-((methylsulfinyl)methyl)phenyl)amino)-7-(cyclopropylamino)pyrazolo[1,5-a]pyrimidine-3-carbonitrile] |
| > 8.60 | 220 to 222 | CS(=O)(=O)Cc1cc(Nc2cc(NC3CC3)n3ncc(C#N)c3n2)ccc1N1CCC1 [Example 32, 5-((4-(Azetidin-1-yl)-3-((methylsulfonyl)methyl)phenyl)amino)-7-(cyclopropylamino)pyrazolo[1,5-a]pyrimidine-3-carbonitrile] |
| 8.00 to 8.60 | 126 to 130 | C[S+]([O-])Cc1cc(Nc2cc(NC3CC3)n3ncc(C#N)c3n2)ccc1C1=CCCNC1.O=C(O)C(F)(F)F (racemic) [Example 53, (±)-7-(cyclopropylamino)-5-((3-((methylsulfinyl)methyl)-4-(1,2,5,6-tetrahydropyridin-3-yl)phenyl)amino)pyrazolo[1,5-a]pyrimidine-3-carbonitrile mono trifluoroacetic acid salt] |
| > 8.60 | 227 to 229 | COc1ccc(Nc2cc(NC3CC3)n3ncc(C#N)c3n2)cc1C[S+](C)[O-] (racemic) [Example 17, (±)-7-(Cyclopropylamino)-5-((4-methoxy-3-((methylsulfinyl)methyl)phenyl)amino)pyrazolo[1,5-a]pyrimidine-3-carbonitrile] |
